Data published in the NIST ThermoML archive (doi:10.1016/j.jct.2017.08.029).

Experiment: wn = mass fraction of the nth substance listed
Settings: 100 kPa, Liquid, Direct current cell with electrodes

C=CC[P+](c1ccccc1)(c1ccccc1)c1ccccc1.[Br-] [allyltriphenylphosphonium bromide] + OCCOCCO
electrical conductivity [S/m]
Settings | 293.15 K | 303.15 K | 313.15 K | 323.15 K | 333.15 K | 343.15 K
w1 = 0.1842 | 0.0997 | 0.115 | 0.14 | 0.175 | 0.224 | 0.279
w1 = 0.2653 | 0.118 | 0.129 | 0.159 | 0.198 | 0.253 | 0.315
w1 = 0.4745 | 0.137 | 0.148 | 0.177 | 0.222 | 0.274 | 0.339

C=CC[P+](c1ccccc1)(c1ccccc1)c1ccccc1.[Br-] [allyltriphenylphosphonium bromide] + OCCOCCOCCO
electrical conductivity [S/m]
Settings | 293.15 K | 303.15 K | 313.15 K | 323.15 K | 333.15 K | 343.15 K
w1 = 0.1375 | 0.037 | 0.0441 | 0.0643 | 0.0881 | 0.116 | 0.149
w1 = 0.2033 | 0.0477 | 0.0632 | 0.0905 | 0.118 | 0.155 | 0.208
w1 = 0.3895 | 0.067 | 0.0805 | 0.112 | 0.147 | 0.193 | 0.244
